According to US20160213041A1, “NUTRITIONAL COMPOSITION HAVING LIPOPHILIC COMPOUNDS WITH IMPROVED SOLUBILITY AND BIOAVAILABILITY” (ABBOTT LABORATORIES, priority 2013, published 2016):

What was measured:
[1] = 33° C.; cited from earlier work
[2] = Distribution of lutein and MDG over cream, aqueous and pellet layers after 100,000×g (Example 58); assay type: physicochemical; conditions: 100,000×g for 1 hour
Protocol: A study was conducted to investigate the distribution of lutein and MDG within the nutritional compositions. Sample were prepared using homogenization at 150/20 bar, and then centrifuged at 100,000×g for 1 hour. The different layers (e.g., cream, aqueous, and pellet) were then analyzed for the presence of lutein and MDG.

[3] = Centrifugation/ultrafiltration analysis of lutein and MDG in MDG batches (Example 60); assay type: physicochemical; conditions: centrifugation at 1,000×g, samples with NFDM
Protocol: A study was conducted to further investigate the distribution of lutein and MDG within the nutritional composition. Samples included MDG/lutein/water; MDG/lutein/NFDM/water; MDG/lutein/WPC/water; and MDG/water.
The premixes were provided as follows: in samples that contained lutein, lutein was heated for 2 h at 50° C. with shaking. […] In samples that contained protein, non-fat dried milk was added to water (50-60° C.) with agitation and allowed to hydrate for approximately 10 min.
The samples were prepared as follows: for solution 1, water was heated to 50-60° C., an lutein in GMO-40 blend and turrax (30 sec 10000 rpm) was added; for solution 2, NFDM was placed in water solution heated to 50-60° C., and lutein was added in GMO-40 blend and turrax (30 sec 10000 rpm); for solution 3, water was heated to 50-60° C., and GMO-40 blend and turrax (30 sec 10000 rpm) was added. The solutions are listed in the table below as X.1, wherein 1 is the solution.
Samples were formulated as detailed above, and then characterized by ultrafiltration with various membranes, as well as ultracentrifuged at various times and speed (e.g., 100,000×g, 4,500×g, and 1,000×g). The details of the different centrifugation/filtration method are listed below. […]

lutein contained in the pellet [2] | present in the aqueous phase following centrifugation ([2]; nutritional compositions comprising MDG, of the nutritional composition) | lutein found in the aqueous phase [3] [%] | Molecule | reported solubility limit in water [1] [mg/kg]
 |  |  | vitamin E | 20.9
approximately 1% | approximately 4 wt % | ~20 | CC1=C[C@H](O)CC(C)(C)[C@H]1/C=C/C(C)=C/C=C/C(C)=C/C=C/C=C(C)/C=C/C=C(C)/C=C/C1=C(C)C[C@@H](O)CC1(C)C [lutein] | 
